Several values for one entry are separate records, joined by “and”; a condition that tells them apart may be missing. Equal values may be shown once.
Legend:
[1] = tested on: anti-HAV-positive sera; test: EIA for anti-HAV: synthetic peptides adsorbed to wells, reacted with anti-HAV-positive acute sera; type: binding, human; settings: for Reactivity with acute sera (reactive/tested): experiment 1: sera 1:100, anti-human IgG-HRP, cutoff P/N 3.0; for Reactivity with acute sera (percent of sera reactive): experiment 1: sera 1:100, cutoff P/N 3.0; for P/N for acute sera (mean) / P/N for acute sera (range, in parentheses) / P/N for acute sera (individual values): experiment 1; for P/N for acute sera (mean) / P/N for acute sera (range, in parentheses): OD493 positive/negative ratio of reactive sera; for P/N for acute sera (individual values): single sera listed with semicolon
Source text: (§1) All anti-HAV-positive and anti-HAV-negative sera were randomly selected from a collection reposited at the Centers for Disease Control and Prevention, Atlanta, Ga. Serum specimens were collected from anti-HAV-positive patients with acute liver disease. Anti-HAV-negative serum specimens were collected from normal blood donors. All sera were initially tested by commercially available kit for the presence of anti-HAV activity (HAVAB and HAVAB-M, Abbott Laboratories, Abbott Park, Ill.)
(§2) Synthetic peptides (110 ml) at a concentration of 10 mg/ml in 0.1 M phosphate-buffered saline (PBS), pH 7.5, were adsorbed to microtiter wells (Immulon II, Dynatech Laboratories, Inc.) at room temperature for 12 h. Sera were diluted in PBS containing 0.1% Tween 20 and 10% normal goat serum (PBS-T) and 100 ml were added to each well, incubated for 60 min at 37E C, and washed with PBS containing Tween-20. […] Two different cutoffs were established for experiments 1 and 2. In experiment 1, the cutoff, expressed as a P/N ratio and equal to 3.0, was statistically established as the mean of negative controls plus at least 3.5 standard deviations (SD) above the mean, where P represents the optical density value at 493 nm (OD493) of anti-HAV-positive specimens and N represents the optical density value of negative controls. In experiment 2, a different cutoff was used to ensure statistical reliability and accurate interpretation of positive results. In this case, in addition to anti-HAV-negative sera, two irrelevant synthetic peptides were used as supplemental negative controls to determine the degree of nonspecific binding of anti-HAV sera to synthetic peptides. One cutoff, expressed as a P/N ratio and equal to 3.0, corresponded to the mean of negative serum controls plus at least 3.5 SD above the mean. A second cutoff was also expressed as a P/N ratio, where P represents the optical density value at 493 nm (OD493) for HAV peptides immunoreacting with anti-HAV-positive specimens and N represents the optical density value obtained with the irrelevant peptides. The second cutoff was equal 2.0 and corresponded to the mean of OD values obtained with the irrelevant peptides plus at least 3.5 SD above the mean. Synthetic peptides were considered immunoreactive with anti-HAV serum specimens only when both cutoffs were satisfied.

[2] = tested on: anti-HAV-negative sera; test: EIA for anti-HAV: synthetic peptides reacted with anti-HAV-negative sera; type: binding, human; settings: experiment 1: sera 1:100, cutoff P/N 3.0
Source text: as §1, §2

## LAKTNDAIKDMSCVDLIMDG [YK-1364]
[1]
  Reactivity with acute sera (reactive/tested): 4/41
  Reactivity with acute sera (percent of sera reactive): 9.8%
  P/N for acute sera (mean): 4.9
  P/N for acute sera (range, in parentheses): (3.5-6.18)
[2]
  Reactivity with negative sera (reactive/tested): 1/41

## ITTIEDPVLAKKVPETFPEL [YK-1271]
[1]
  Reactivity with acute sera (reactive/tested): 4/41
  Reactivity with acute sera (percent of sera reactive): 9.8%
  P/N for acute sera (mean): 4.97
  P/N for acute sera (range, in parentheses): (3.33-7.76)
[2]
  Reactivity with negative sera (reactive/tested): 1/46

## VDDPRSEEDKRFESHIECRK [YK-1314]
[1]
  immunoreactivity with anti-HAV-positive sera (in words): broad and strong antigenic reactivity
  Reactivity with acute sera (reactive/tested): 26/48
  Reactivity with acute sera (percent of sera reactive): 54.2%
  P/N for acute sera (mean): 14.68
  P/N for acute sera (range, in parentheses): (3.53-89.96)
[2]
  Reactivity with negative sera (reactive/tested): 1/51

## SVTEQSEFYFPRAPLNSNAM [YK-1308]
[1]
  Reactivity with acute sera (reactive/tested): 1/48
  Reactivity with acute sera (percent of sera reactive): 2.1%
  P/N for acute sera (mean): 3.32
[2]
  Reactivity with negative sera (reactive/tested): 0/51

## SHIECRKPYKELRLEVGKQR [YK-1315]
[1]
  Reactivity with acute sera (reactive/tested): 26/48
  Reactivity with acute sera (percent of sera reactive): 54.2%
  P/N for acute sera (mean): 13.71
  P/N for acute sera (range, in parentheses): (3.1-75.61)
[2]
  Reactivity with negative sera (reactive/tested): 1/51

## LDENGLLLGVHPRLAQRILF [YK-1407]
[1]
  Reactivity with acute sera (reactive/tested): 2/41
  Reactivity with acute sera (percent of sera reactive): 4.9%
  P/N for acute sera (individual values): 3.43 and 3.98
[2]
  Reactivity with negative sera (reactive/tested): 0/27

## FSQAKISLFYTEEHEIMKFS [YK-1319]
[1]
  Reactivity with acute sera (reactive/tested): 13/48
  Reactivity with acute sera (percent of sera reactive): 27.1%
  P/N for acute sera (mean): 3.87
  P/N for acute sera (range, in parentheses): (3.14-5.01)
[2]
  Reactivity with negative sera (reactive/tested): 2/51

## MEEKATYVHKKNDGTTVDLT [YK-1388]
[1]
  Reactivity with acute sera (reactive/tested): 4/41
  Reactivity with acute sera (percent of sera reactive): 9.8%
  P/N for acute sera (mean): 4.29
  P/N for acute sera (range, in parentheses): (3.99-4.7)
[2]
  Reactivity with negative sera (reactive/tested): 0/27

## FWRGDLVFDFQVFPTKYHSG [YK-1248]
[1]
  Reactivity with acute sera (reactive/tested): 3/41
  Reactivity with acute sera (percent of sera reactive): 7.3%
  P/N for acute sera (individual values): 3.16 and 3.2
[2]
  Reactivity with negative sera (reactive/tested): 0/46

## VLPPPRKMKGLFSQAKISLF [YK-1318]
[1]
  Reactivity with acute sera (reactive/tested): 15/48
  Reactivity with acute sera (percent of sera reactive): 31.3%
  P/N for acute sera (mean): 5.94
  P/N for acute sera (range, in parentheses): (3.4-8.68)
[2]
  Reactivity with negative sera (reactive/tested): 0/51

## DHMSIYKFMGRSHFLCTFTF [YK-1276]
[1]
  immunoreactivity with anti-HAV-positive sera (in words): broad and strong antigenic reactivity
  Reactivity with acute sera (reactive/tested): 17/41
  Reactivity with acute sera (percent of sera reactive): 41.5%
  P/N for acute sera (mean): 4.38
  P/N for acute sera (range, in parentheses): (3.15-5.62)
[2]
  Reactivity with negative sera (reactive/tested): 0/46

## DSAVAEFFQSFPSGEPSNSK [YK-1369]
[1]
  Reactivity with acute sera (reactive/tested): 24/41
  Reactivity with acute sera (percent of sera reactive): 58.5%
  P/N for acute sera (mean): 21.71
  P/N for acute sera (range, in parentheses): (3.8-42.62)
[2]
  Reactivity with negative sera (reactive/tested): 1/27

## KNDGTTVDLTVDQAWRGKGE [YK-1389]
[1]
  Reactivity with acute sera (reactive/tested): 3/41
  Reactivity with acute sera (percent of sera reactive): 7.3%
  P/N for acute sera (mean): 10.33
  P/N for acute sera (range, in parentheses): (5.53-18.26)
[2]
  Reactivity with negative sera (reactive/tested): 0/27

## KCITALASICQMFCFWRGDL [YK-1247]
[1]
  Reactivity with acute sera (reactive/tested): 9/46
  Reactivity with acute sera (percent of sera reactive): 19.6%
  P/N for acute sera (mean): 3.96
  P/N for acute sera (range, in parentheses): (3.06-4.49)
[2]
  Reactivity with negative sera (reactive/tested): 0/48

## VASHVRVNVYLSAINLECFA [YK-1261]
[1]
  immunoreactivity with anti-HAV-positive sera (in words): broadly and strongly immunoreactive
  Reactivity with acute sera (reactive/tested): 16/41
  Reactivity with acute sera (percent of sera reactive): 39.0%
  P/N for acute sera (mean): 5.27
  P/N for acute sera (range, in parentheses): (3.72-7.9)
[2]
  Reactivity with negative sera (reactive/tested): 1/46

## FTQCSMNVVSKTLFRKSPIY [YK-1395]
[1]
  Reactivity with acute sera (reactive/tested): 8/41
  Reactivity with acute sera (percent of sera reactive): 19.5%
  P/N for acute sera (mean): 6.52
  P/N for acute sera (range, in parentheses): (3.51-17.52)
[2]
  Reactivity with negative sera (reactive/tested): 1/27

## MSRIAAGDLESSVDDPRSEE [YK-1312]
[1]
  Reactivity with acute sera (reactive/tested): 13/48
  Reactivity with acute sera (percent of sera reactive): 27.1%
  P/N for acute sera (mean): 8.7
  P/N for acute sera (range, in parentheses): (4.44-25.9)
[2]
  Reactivity with negative sera (reactive/tested): 2/51

## VKPASFFKNPHNDMLNVNLA [YK-1362]
[1]
  Reactivity with acute sera (reactive/tested): 6/41
  Reactivity with acute sera (percent of sera reactive): 14.6%
  P/N for acute sera (mean): 7.82
  P/N for acute sera (range, in parentheses): (3.4-18.05)
[2]
  Reactivity with negative sera (reactive/tested): 0/41

## VKEAIDRRLHFKVEVKPASF [YK-1361]
[1]
  Reactivity with acute sera (reactive/tested): 5/41
  Reactivity with acute sera (percent of sera reactive): 12.2%
  P/N for acute sera (mean): 4.12
  P/N for acute sera (range, in parentheses): (3.21-6.28)
[2]
  Reactivity with negative sera (reactive/tested): 0/46

## RGKGEGLPGMCGGALVSSNQ [YK-1390]
[1]
  Reactivity with acute sera (reactive/tested): 10/41
  Reactivity with acute sera (percent of sera reactive): 24.4%
  P/N for acute sera (mean): 6.62
  P/N for acute sera (range, in parentheses): (3.52-13.98)
[2]
  Reactivity with negative sera (reactive/tested): 1/27

## VSGCPMRLNMASLEEKGRHF [YK-1356]
[1]
  Reactivity with acute sera (reactive/tested): 8/48
  Reactivity with acute sera (percent of sera reactive): 16.7%
  P/N for acute sera (mean): 5.49
  P/N for acute sera (range, in parentheses): (3.36-10.96)
[2]
  Reactivity with negative sera (reactive/tested): 0/51

## NIGTGTSAYTSLNVLARFTD [YK-1224]
[1]
  Reactivity with acute sera (reactive/tested): 9/41
  Reactivity with acute sera (percent of sera reactive): 22.0%
  P/N for acute sera (mean): 3.53
  P/N for acute sera (range, in parentheses): (3.09-4.17)
[2]
  Reactivity with negative sera (reactive/tested): 0/46

## KVNFPHGMLDLEEIAANSKD [YK-1327]
[1]
  Reactivity with acute sera (reactive/tested): 15/48
  Reactivity with acute sera (percent of sera reactive): 31.3%
  P/N for acute sera (mean): 6.16
  P/N for acute sera (range, in parentheses): (3.28-9.76)
[2]
  Reactivity with negative sera (reactive/tested): 1/51

## QFPFNASDSVGQQIKVIPVD [YK-1241]
[1]
  immunoreactivity with anti-HAV-positive sera (in words): Very weakly reactive
  Reactivity with acute sera (reactive/tested): 1/41
  Reactivity with acute sera (percent of sera reactive): 2.4%
  P/N for acute sera (mean): 3.56
[2]
  Reactivity with negative sera (reactive/tested): 0/46

## SQGISDDDNDSAVAEFFQSF [YK-1368]
[1]
  Reactivity with acute sera (reactive/tested): 26/41
  Reactivity with acute sera (percent of sera reactive): 63.4%
  P/N for acute sera (mean): 9.58
  P/N for acute sera (range, in parentheses): (4.27-19.82)
[2]
  Reactivity with negative sera (reactive/tested): 1/27

## SKTRAIDACPLDYSILCRMY [YK-1412]
[1]
  Reactivity with acute sera (reactive/tested): 10/41
  Reactivity with acute sera (percent of sera reactive): 24.4%
  P/N for acute sera (mean): 6.04
  P/N for acute sera (range, in parentheses): (3.4-15.15)
[2]
  Reactivity with negative sera (reactive/tested): 2/27

## LNMASLEEKGRHFSSPFIIA [YK-1357]
[1]
  Reactivity with acute sera (reactive/tested): 4/48
  Reactivity with acute sera (percent of sera reactive): 8.3%
  P/N for acute sera (mean): 4.49
  P/N for acute sera (range, in parentheses): (4.06-4.85)
[2]
  Reactivity with negative sera (reactive/tested): 1/51

## FPTKYHSGRLLFCFVPGNEL [YK-1250]
[1]
  immunoreactivity with anti-HAV-positive sera (in words): broadly and strongly immunoreactive
  Reactivity with acute sera (reactive/tested): 17/46
  Reactivity with acute sera (percent of sera reactive): 37.0%
  P/N for acute sera (mean): 5.68
  P/N for acute sera (range, in parentheses): (3.4-7.92)
[2]
  Reactivity with negative sera (reactive/tested): 0/48

## WQRSNAEFEQNLENAQWFAF [YK-1436]
[1]
  Reactivity with acute sera (reactive/tested): 4/41
  Reactivity with acute sera (percent of sera reactive): 9.8%
  P/N for acute sera (mean): 4.49
  P/N for acute sera (range, in parentheses): (3.35-5.89)
[2]
  Reactivity with negative sera (reactive/tested): 1/27

## EVGSHQVEPLRTSVDKPGSK [YK-1210]
[1]
  Reactivity with acute sera (reactive/tested): 15/46
  Reactivity with acute sera (percent of sera reactive): 32.6%
  P/N for acute sera (mean): 7.31
  P/N for acute sera (range, in parentheses): (3.93-20.47)
[2]
  Reactivity with negative sera (reactive/tested): 0/48

## RCEPVVCYLYGKRGGGKSLT [YK-1348]
[1]
  percent of (IgM) anti-HAV-positive sera immunoreactive with peptide: 29.2%
  Reactivity with acute sera (reactive/tested): 14/48
  Reactivity with acute sera (percent of sera reactive): 29.2%
  P/N for acute sera (mean): 6.96
  P/N for acute sera (range, in parentheses): (3.66-15.48)
[2]
  Reactivity with negative sera (reactive/tested): 2/51
